The nature of data set [1]: Solubility (characterisation data).
The subject of the next data set is DNA end joining (NHEJ). Put plainly: NHEJ assay, cell-free extracts prepared from rat testes. The following applies: cell-free repair system from rat testes; compatible, noncompatible, blunt ends. In kind it is biochemical. On the procedure: ATP end-labeled oligomeric DNA substrate (75 bp) containing 4 nt overhangs at 5′ ends (about 2 h at 25° C.). In the case of vehicle control, DMSO is used. […] The reaction products are purified and resolved on about 8% denaturing polyacrylamide gel.
FIG. 2 depicts the NHEJ assay and study of joining efficiency. A. Schematic representation of NHEJ assay and substrates containing DSBs. B. Comparison of the effect of potential Ligase IV inhibitors on DNA end joining. The joined products are indicated. “M” represents [g-32 ? P] ATP end-labeled 50 by ladder. C. Quantification of the joining efficiency. […] “PSLU” is “photostimulated luminescence unit”. […] Products are resolved on 1% agarose gel and visualized. Ethidium bromide is used as a positive control for the intercalation assay.
The reaction products are resolved on 8% denaturing PAGE. “M” represents [γ-^32P]ATP end-labeled 50 by ladder. […] “M” is a 2 log DNA ladder.
A. Western blotting showing presence of Ligase IV/XRCC4 in eluted fractions. W is wash, 1 and 2 are different fractions. […] Concentrations of inhibitors used are indicated. For other details, FIG. 4 legend can be referred. C. […] Radiolabeled oligomeric DNA substrates containing 5′ compatible termini are then added to the reaction along with increasing concentrations of purified Ligase IV/XRCC4 complex (30, 60 and 120 fmol) and products are resolved on a PAGE. F. Bar diagram representing quantification of the complementation experiment performed on 5′-5′ and 5′-3′ noncomplementary ends. In all panels quantification of EJ based on 3 independent experiments is represented as mean±SEM.

Experimental findings from patent US9969696B2, “Compounds as inhibitor of DNA double-strand break repair, methods and applications thereof” (INDIAN INSTITUTE OF SCIENCE, priority 2012, dated 2018) are described below.

As for `Nc1nc(S)nc(O)c1/N=C/c1ccc(Cl)cc1` [Compound 2, (E)-5-(4-chlorobenzylideneamino)-6-amino-2-mercaptopyrimidin-4-ol], the melting point was > 300 °C. For the same compound, in data set [1], the “Solubility in dimethyl formamide (DMF), dimethyl sulfoxide (DMSO)” value (from here on “Solubility in dimethyl formamide (DMF)”) was “soluble”; the “Solubility in chloroform (CHCl3)” value is given as “Insoluble”; the Solubility in ethanol entry is “Partially soluble”.
Regarding `Nc1nc(S)nc(O)c1/N=C/c1ccc([N+](=O)[O-])cc1` [Compound 3, (E)-5-(4-nitrobenzylideneamino)-6-amino-2-mercaptopyrimidin-4-ol], the melting point was > 320 °C. Also, in data set [1], the “Solubility in dimethyl formamide (DMF)” value was “soluble”; the “Solubility in chloroform (CHCl3)” value is “Insoluble”; the Solubility in ethanol result is on record as “Partially soluble”.
The matching figures for `Nc1nc(S)nc(O)c1/N=C/c1ccc(O)cc1` [Compound 4, (E)-5-(4-hydroxybenzylideneamino)-6-amino-2-mercaptopyrimidin-4-ol]: > 320 °C, “soluble”, “Insoluble” and “Partially soluble”.
With `COc1cc(/C=N/c2c(N)nc(S)nc2O)cc(OC)c1OC` [Compound 5, (E)-5-(3,4,5-trimethoxybenzylideneamino)-6-amino-2-mercaptopyrimidin-4-ol], the melting point was determined as 315 °C. In addition, in data set [1], the “Solubility in dimethyl formamide (DMF)” value is “soluble”; the “Solubility in chloroform (CHCl3)” value is on record as “Insoluble”; the Solubility in ethanol result is given as “Partially soluble”.
`Oc1nc(S)nc(/N=C/c2ccc(Cl)cc2)c1/N=C/c1ccc(Cl)cc1` [Compound 6, (5E,6E)-5,6-bis(4-chlorobenzylideneamino)-2-mercaptopyrimidin-4-ol] displayed a melting point of 260 to 262 °C. In addition, in data set [1], the “Solubility in dimethyl formamide (DMF)” value is “soluble”; the “Solubility in chloroform (CHCl3)” value is “Insoluble”; the Solubility in ethanol entry is “Partially soluble”.
The matching figures for `Cc1ccc(/C=N/c2nc(S)nc(O)c2/N=C/c2ccc(C)cc2)cc1` [Compound 7, (5E,6E)-5,6-bis(4-methylbenzylideneamino)-2-mercaptopyrimidin-4-ol]: 181 to 183 °C, “soluble”, “Insoluble” and “Partially soluble”.
On to `Oc1nc(S)nc2nc3[nH]c4ccccc4c3nc12` [Compound 8, 2-mercapto-10H-indolo[3,2-g]pteridin-4-ol], for which the melting point was > 320 °C. In addition, in data set [1], the “Solubility in dimethyl formamide (DMF)” value is on record as “soluble”; the “Solubility in chloroform (CHCl3)” value is recorded as “Insoluble”; the Solubility in ethanol result is listed as “Partially soluble”.
On to `O=[N+]([O-])c1ccc(/C=N/c2nc(S)nc(O)c2/N=C/c2ccc([N+](=O)[O-])cc2)cc1` [Compound 9, (5E,6E)-5,6-bis(4-nitrobenzylideneamino)-2-mercaptopyrimidin-4-ol], for which, in data set [1], the “Solubility in dimethyl formamide (DMF)” value is recorded as “soluble”; the “Solubility in chloroform (CHCl3)” value is “Insoluble”; the Solubility in ethanol result was “Partially soluble”.
The corresponding values for `COc1ccc(/C=N/c2nc(S)nc(O)c2/N=C/c2ccc(OC)cc2)cc1` [Compound 10, (5E,6E)-5,6-bis(4-methoxybenzylideneamino)-2-mercaptopyrimidin-4-ol] are “soluble”, “Insoluble” and “Partially soluble”.
The matching figures for `COc1cc(/C=N/c2nc(S)nc(O)c2/N=C/c2cc(OC)c(OC)c(OC)c2)cc(OC)c1OC` [Compound 11, (5E,6E)-5,6-bis(3,4,5-trimethoxybenzylideneamino)-2-mercaptopyrimidin-4-ol]: “soluble”, “Insoluble” and “Partially soluble”.
The corresponding values for `Oc1ccc(/C=N/c2nc(S)nc(O)c2/N=C/c2ccc(O)cc2)cc1` [Compound 12, (5E,6E)-5,6-bis(4-hydroxybenzylideneamino)-2-mercaptopyrimidin-4-ol] are “soluble”, “Insoluble” and “Partially soluble”.
`Cc1ccc(/C=N/c2c(N)nc(S)nc2O)cc1` [Compound 13, (E)-5-(4-methylbenzylideneamino)-6-amino-2-mercaptopyrimidin-4-ol]: in data set [1], the “Solubility in dimethyl formamide (DMF)” value is reported as “soluble”; the “Solubility in chloroform (CHCl3)” value is listed as “Insoluble”; the Solubility in ethanol entry was “Partially soluble”.
`COc1ccc(/C=N/c2c(N)nc(S)nc2O)cc1` [Compound 14, (E)-5-(4-methoxybenzylideneamino)-6-amino-2-mercaptopyrimidin-4-ol]: in data set [1], the “Solubility in dimethyl formamide (DMF)” value is listed as “soluble”; the “Solubility in chloroform (CHCl3)” value is given as “Insoluble”; the Solubility in ethanol entry is listed as “Partially soluble”.
Take `[Na+].[O-]c1nc(S)nc(/N=C/c2ccccc2)c1/N=C/c1ccccc1` [Compound 15, Sodium 5,6-bis((E)-benzylideneamino)-2-mercaptopyrimidin-4-olate]: the “Inhibition of end joining (EJ) of various types of DSBs” value with DNA end joining (NHEJ) is “inhibits end joining (EJ) irrespective of type and configurations of DSB”.
